According to US5075287A, “Muramyl peptide derivatives and immunoregulating compositions containing them” (priority 1989, dated 1991):
Like-named read-outs stand apart in the source and are kept apart here.

How the values were obtained:
[1] = tested on: hepatitis B virus surface antigen (HBs); assay: Hepatitis-vaccine enhancing activity (adjuvant activity): anti-HBs IgG in mouse serum by ELISA; type: in vivo, female CDF1 mice; conditions: Experiment 2, 2000-fold dilution
Experimental: A compound of the present invention was dissolved in lipidmicrosphere (1 mg/ml). On the other hand, a solution of hepatitis B virus surface antigen (HBs) in physiological saline was prepared (50 μg/ml). The above solutions in equal amounts were mixed to prepare a test solution. A control solution was prepared by the exclusion of the compound of the present invention from said test solution. A mixture of a suspension of aluminium hydroxide gel in physiological saline (1 mg/ml) and said hepatitis vaccine preparation in equal amounts was prepared as another control solution. The test solution (0.2 ml) was intraperitoneally administered to each mouse in one group consisting of seven female CDF1 mice.
Blood samples were collected from the fundus ocluli vein of each mouse every week after the administration and then centrifuged to obtain serums. Three weeks after the administration, 0.2 ml of the test liquid was intraperitoneally administered again to each mouse for secondary stimulation. Then blood collecting was conducted every week to obtain serums after the application of the secondary stimulation, in the same manner as that described above.
The amount of the IgG antibodies against the hepatitis B virus surface antigens (HBs) in the serums thus obtained was determined with an ELISA method.

[2] = tested on: influenza HA vaccine (B/Nagasaki/1/87 strain); type: in vivo, female CDF1 mice; conditions: Experiment 2, 8000-fold dilution
[3] = 4 W (after secondary stimulation at 3 weeks)
[4] = 5 W (after secondary stimulation at 3 weeks)

SMILES	Anti-HBs IgG antibody level in serum (ELISA absorbance at 415 nm) ([1]; 1 W) [O.D 415 nm]	Anti-HBs IgG antibody level in serum (ELISA absorbance at 415 nm) ([1]; 2 W) [O.D 415 nm]	Anti-HBs IgG antibody level in serum (ELISA absorbance at 415 nm) ([1]; 3 W) [O.D 415 nm]	Anti-HBs IgG antibody level in serum (ELISA absorbance at 415 nm) [1, 3] [O.D 415 nm]	Anti-HBs IgG antibody level in serum (ELISA absorbance at 415 nm) [1, 4] [O.D 415 nm]	Anti HA serum antigen value (average value ± S.D.) ([2]; 1 W) [O.D 415 nm]	Anti HA serum antigen value (average value ± S.D.) ([2]; 2 W) [O.D 415 nm]	Anti HA serum antigen value (average value ± S.D.) ([2]; 3 W) [O.D 415 nm]	Anti HA serum antigen value (average value ± S.D.) [2, 3] [O.D 415 nm]	Anti HA serum antigen value (average value ± S.D.) [2, 4] [O.D 415 nm]
CCCCCCCCCCCCCCCC(=O)O[C@H](CCCCCCCCCCC)CC(=O)O[C@H]1O[C@H](CO)[C@@H](O)[C@H](O[C@H](C)C(=O)N[C@@H](C)C(=O)N[C@H](CCC(=O)OC)C(N)=O)[C@H]1NC(C)=O [Example 17, N-[2-0-{2-Acetamido-2,3-dideoxy-1-0-((3R)-3-hexadecanoyloxytetradecanoyl)-α-D-glucopyranos-3-yl}-D-lactoyl]-L-alanyl-D-isoglutamine methylester]	0.001 ± 0.004	0.026 ± 0.001	0.051 ± 0.001	0.642 ± 0.021	0.615 ± 0.021	0.010 ± 0.002	0.122 ± 0.006	0.191 ± 0.001	0.611 ± 0.017	0.696 ± 0.014
CCCCCCCCCCCCCCCCCC(=O)OC[C@H]1O[C@H](OC(=O)C[C@@H](CCCCCCCCCCC)OC(=O)CCCCCCCCCCCCCCC)[C@H](NC(C)=O)[C@@H](O[C@H](C)C(=O)N[C@@H](C)C(=O)N[C@H](CCC(=O)OC)C(N)=O)[C@@H]1O [Example 18, N-[2-0-{2-Acetamido-2,3-dideoxy-6-0octadecanoyl-1-0-((3R)-3-hexadecanoyloxytetradecanoyl)-α-D-glucopyranos-3-yl}-D-lactoyl]-L-alanyl-D-isoglutamine methylester]	0	0.035 ± 0.007	0.050 ± 0.004	0.481 ± 0.006	0.375 ± 0.008	0	0.052 ± 0.004	0.075 ± 0.001	0.370 ± 0.005	0.360 ± 0.001
CCCCCCCCCCCCCCCC(=O)O[C@H](CCCCCCCCCCC)CC(=O)S[C@@H]1O[C@H](CO)[C@@H](O)[C@H](O[C@H](C)C(=O)N[C@@H](C)C(=O)N[C@H](CCC(=O)OC)C(N)=O)[C@H]1NC(C)=O [Example 19]	0	0.023 ± 0.000	0.042 ± 0.001	0.536 ± 0.011	0.521 ± 0.012	0	0.125 ± 0.003	0.187 ± 0.001	0.872 ± 0.002	0.936 ± 0.006
CCCCCCCCCCCCCCCCCC(=O)OC[C@H]1O[C@@H](SC(=O)C[C@@H](CCCCCCCCCCC)OC(=O)CCCCCCCCCCCCCCC)[C@H](NC(C)=O)[C@@H](O[C@H](C)C(=O)N[C@@H](C)C(=O)N[C@H](CCC(=O)OC)C(N)=O)[C@@H]1O [Example 20, N-[2-0-{2-Acetamido-2,3-dideoxy-6-0-octadecanoyl-1-S-((3R)-3-hexadecanoyloxytetradecanoyl)-1-thio-β-D-glucopyranos-3-yl}-D-lactoyl]-L-alanYl-D-isoglutamine methylester]	0.002 ± 0.001	0.044 ± 0.005	0.056 ± 0.003	0.814 ± 0.018	0.708 ± 0.002	0.001 ± 0.001	0.071 ± 0.001	0.110 ± 0.008	0.840 ± 0.011	0.857 ± 0.023
CCCCCCCCCCCCCCCCCC(=O)O[C@H](CCCCCCCCCCC)CC(=O)O[C@H]1O[C@H](CO)[C@@H](O)[C@H](O[C@H](C)C(=O)N[C@@H](C)C(=O)N[C@H](CCC(=O)OC)C(N)=O)[C@H]1NC(C)=O [Example 21, N-[2-0-{2-Acetamido-2,3-dideoxy-1-0-((3R)-3-octadecanoyloxytetradecanoyl)-α-D-glucopyranos-3-yl}-D-lactoyl]-L-alanyl-D-isoglutamine methylester]	0.006 ± 0.004	0.038 ± 0.000	0.058 ± 0.007	0.517 ± 0.006	0.498 ± 0.011	0	0.060 ± 0.001	0.097 ± 0.002	0.748 ± 0.003	0.758 ± 0.012
CCCCCCCCCCCCCCCCCC(=O)OC[C@H]1O[C@H](OC(=O)C[C@@H](CCCCCCCCCCC)OC(=O)CCCCCCCCCCCCCCCCC)[C@H](NC(C)=O)[C@@H](O[C@H](C)C(=O)N[C@@H](C)C(=O)N[C@H](CCC(=O)OC)C(N)=O)[C@@H]1O [Example 22]	0.005 ± 0.004	0.036 ± 0.007	0.053 ± 0.001	0.294 ± 0.006	0.254 ± 0.002	0.001 ± 0.004	0.065 ± 0.001	0.100 ± 0.003	0.411 ± 0.009	0.492 ± 0.002
CCCCCCCCCCCCCCCCCC(=O)O[C@H](CCCCCCCCCCC)CC(=O)S[C@@H]1O[C@H](CO)[C@@H](O)[C@H](O[C@H](C)C(=O)N[C@@H](C)C(=O)N[C@H](CCC(=O)OC)C(N)=O)[C@H]1NC(C)=O [Example 23, N-[2-0-{2-Acetamido-2,3-dideoxy-1-S-((3R)-3-octadecanoyloxytetradecanoyl)-1-thio-β-D-glucopyranos-3-yl}-D-lactoyl]-L-alanyl-D-isoglutamine methylester]	0.004 ± 0.001	0.051 ± 0.003	0.092 ± 0.004	0.639 ± 0.003	0.626 ± 0.008	0.008 ± 0.005	0.096 ± 0.001	0.183 ± 0.004	0.949 ± 0.006	1.030 ± 0.003
CCCCCCCCCCCCCCCCCC(=O)OC[C@H]1O[C@@H](SC(=O)C[C@@H](CCCCCCCCCCC)OC(=O)CCCCCCCCCCCCCCCCC)[C@H](NC(C)=O)[C@@H](O[C@H](C)C(=O)N[C@@H](C)C(=O)N[C@H](CCC(=O)O)C(N)=O)[C@@H]1O [Example 24, N-[2-0-{2-Acetamido-2,3-dideoxy-6-0-octadecanoyl-1-S-((3R)-3-octadecanoyloxytetradecanoyl)-1-thio-β-D-glucopyranos-3-yl}-D-lactoyl]-L-alanyl-D-isoglutamine]	0.007 ± 0.001	0.034 ± 0.001	0.050 ± 0.000	0.579 ± 0.007	0.513 ± 0.011	0.006 ± 0.001	0.085 ± 0.005	0.113 ± 0.007	0.771 ± 0.003	0.791 ± 0.004
